Source: patent US7547803B2, “Process for producing a high purity aromatic polycarboxylic acid” (Mitsubishi Gas Chemical Company, Inc., priority 2003, dated 2009)

Experiment: solubility in water at 280° C.
Format: physicochemical

solubility of 2,6-naphthalenedicarboxylic acid in water: about 6 g in 100 g of water
SMILES: O=C(O)c1ccc2cc(C(=O)O)ccc2c1 [2,6-naphthalenedicarboxylic acid]
